Data as given in ChEMBL document CHEMBL1201862, “PubChem BioAssay data set” (2004).
Activity calls are given as the source filed them.

Assays:
Large T antigen = Large T antigen (Simian virus 40, UniProt P03070); type: functional, Betapolyomavirus macacae;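 further: Confirmatory-stage PubChem screen for compounds that inhibit SV40 T antigen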
[1] = molecular target: FAD-linked sulfhydryl oxidase ALR (Homo sapiens, UniProt P55789); assay: ALR-catalysed DTT oxidation blockers – biochemical, H2O2 detection, luminescence, cherry-pick, dose response (AID 493248)
[2] = molecular target: T1, Ubiquitin-conjugating enzyme E2 N (Homo sapiens, UniProt P61088); type: functional;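 further: Dose-response confirmation in a TR-FRET assay detecting UBC13-driven polyubiquitin chain formation, inhibition measured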
T1 sequence (P61088 whole entry): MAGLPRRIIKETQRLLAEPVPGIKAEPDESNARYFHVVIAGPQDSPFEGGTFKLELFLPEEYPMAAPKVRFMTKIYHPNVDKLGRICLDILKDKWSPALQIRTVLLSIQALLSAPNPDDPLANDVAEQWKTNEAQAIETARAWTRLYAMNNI

[3] = molecular target: T2, High affinity choline transporter 1 (Homo sapiens, UniProt Q9GZV3); assay: human choline transporter blockers, potency – cell-based, 5-point CRC, membrane potential dye, dose response (AID 504840); type: functional
T2 sequence (Q9GZV3 whole entry): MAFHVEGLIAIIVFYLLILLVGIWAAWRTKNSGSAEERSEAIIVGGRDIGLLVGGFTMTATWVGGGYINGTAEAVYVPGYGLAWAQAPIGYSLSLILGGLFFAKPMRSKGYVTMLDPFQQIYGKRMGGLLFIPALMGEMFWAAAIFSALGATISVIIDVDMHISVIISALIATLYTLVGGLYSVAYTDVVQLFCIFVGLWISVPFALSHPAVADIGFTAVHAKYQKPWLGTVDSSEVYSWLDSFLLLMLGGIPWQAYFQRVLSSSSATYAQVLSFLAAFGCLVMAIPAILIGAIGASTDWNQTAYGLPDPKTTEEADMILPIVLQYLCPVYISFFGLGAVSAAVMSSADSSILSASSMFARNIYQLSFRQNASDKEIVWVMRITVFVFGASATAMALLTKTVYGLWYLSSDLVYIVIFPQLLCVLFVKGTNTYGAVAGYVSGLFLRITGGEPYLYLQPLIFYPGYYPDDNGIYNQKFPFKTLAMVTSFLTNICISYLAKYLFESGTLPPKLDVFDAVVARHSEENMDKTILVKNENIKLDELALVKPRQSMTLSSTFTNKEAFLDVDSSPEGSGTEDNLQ

Genome polyprotein = Genome polyprotein (dengue virus type 2, UniProt P29990); assay: flavivirus cap methylation enzyme inhibition – biochemical, confirmation dose response, primary screen (AID 588689); type: functional
[4] = molecular target: T3, Rac GTPase-activating protein 1 (Homo sapiens, UniProt Q9H0H5); assay: blockers of MgcRacGAP-driven Rac1 GTP hydrolysis – biochemical, ADP Hunter fluorescence, primary and confirmatory, confirmation (AID 624330); type: functional
T3 sequence (Q9H0H5 whole entry): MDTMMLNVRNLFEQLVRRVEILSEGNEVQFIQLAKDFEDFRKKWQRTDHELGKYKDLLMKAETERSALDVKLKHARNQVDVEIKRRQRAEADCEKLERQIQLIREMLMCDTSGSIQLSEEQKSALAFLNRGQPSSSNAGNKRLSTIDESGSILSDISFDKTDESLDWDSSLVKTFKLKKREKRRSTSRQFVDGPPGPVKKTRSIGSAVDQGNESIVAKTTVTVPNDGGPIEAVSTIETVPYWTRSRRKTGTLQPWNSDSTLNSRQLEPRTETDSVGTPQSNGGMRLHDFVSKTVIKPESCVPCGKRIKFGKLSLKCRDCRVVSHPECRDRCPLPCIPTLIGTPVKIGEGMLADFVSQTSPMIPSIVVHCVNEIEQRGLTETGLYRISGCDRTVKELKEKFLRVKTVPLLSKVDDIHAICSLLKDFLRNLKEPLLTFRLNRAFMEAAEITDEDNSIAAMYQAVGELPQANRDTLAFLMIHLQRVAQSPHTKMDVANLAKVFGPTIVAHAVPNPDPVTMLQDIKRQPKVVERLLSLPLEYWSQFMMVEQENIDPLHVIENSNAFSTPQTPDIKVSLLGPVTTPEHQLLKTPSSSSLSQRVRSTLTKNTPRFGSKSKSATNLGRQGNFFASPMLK

Streptokinase A = molecular target: T4, Streptokinase A (Streptococcus pyogenes serotype M1, UniProt P10520); assay: viability-normalized secreted streptokinase activity reduction – plasminogen activation absorbance, OD405, dose response (AID 1914); type: functional, Streptococcus pyogenes M1 GAS;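 further: secreted streptokinase activity via plasminogen activation per viability signal from cell pellet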
T4 sequence (P10520 whole entry): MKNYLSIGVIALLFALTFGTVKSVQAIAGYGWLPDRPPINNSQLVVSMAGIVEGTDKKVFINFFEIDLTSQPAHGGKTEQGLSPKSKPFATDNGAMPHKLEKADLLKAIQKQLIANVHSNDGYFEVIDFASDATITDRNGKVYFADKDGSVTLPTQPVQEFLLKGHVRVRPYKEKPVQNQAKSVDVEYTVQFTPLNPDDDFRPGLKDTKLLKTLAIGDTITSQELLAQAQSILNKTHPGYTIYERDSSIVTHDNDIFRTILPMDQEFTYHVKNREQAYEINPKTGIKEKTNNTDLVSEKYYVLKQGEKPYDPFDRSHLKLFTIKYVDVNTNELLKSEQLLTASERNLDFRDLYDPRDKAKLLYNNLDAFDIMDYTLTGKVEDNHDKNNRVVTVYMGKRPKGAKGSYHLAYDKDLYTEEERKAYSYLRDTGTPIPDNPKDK

Trypsin = Trypsin (Sus scrofa, UniProt P00761); assay: trypsin protease activity blockade – biochemical, quenched peptide fluorescence, cherry-pick, selectivity assay for Rce1 protease inhibitor project, dose response (AID 488789)
Nonstructural protein 1 = Nonstructural protein 1 (Influenza A virus, UniProt Q194T2); type: functional, Influenza A virus (A/California/07/2009(H1N1))
[5] = THP-1 cell cytotoxicity, dose response, cytotoxicity control for non-replicating M. tuberculosis project (AID 489025); type: functional
Vero = assay: cells; type: functional; conditions: Chlorocebus sabaeus
[6] = molecular target: Luciferin 4-monooxygenase (Photinus pyralis, UniProt P08659); assay: inhibition of purified Photinus pyralis luciferase – biochemical, luminescence, dose response (AID 1891)
[7] = Luminescence Cell-Based Dose Confirmation HTS to Identify Inhibitors of Platelet Dense Granule Release. [Related pubchem assays: 1663 (Primary HTS), 1678 (Summary of Project)]; type: functional
H9c2 = assay: cells; type: functional, cell-based; conditions: Rattus norvegicus, H9c2, Myocardium;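 further: confirmatory concentration-response retest of ultra-high-throughput screening hits for modulation of myocardial damage; cell death induced by hydrogen peroxide oxidative stress; compound pretreatment for 60 min then peroxide exposure for 2 h; potency is for protecting the cells against peroxide damage rather than for killing them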
INS1 = assay: INS-1E survival protection against cytokine death – cell-based, luminescence, retest, dose response (AID 449756); type: functional; conditions: Rattus norvegicus;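 further: cell death triggered by IL-1 beta plus TNF-alpha plus IFN-gamma mixture; protective hits raise ATP signal compared with cytokine alone wells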
[8] = Luminescence Cell-Based Dose Confirmation HTS to Identify Activators of 5'UTR Stem-Loop Driven Alpha-Synuclein mRNA Translation in H4 Neuroglioblastoma Cells. [Related pubchem assays: 1829 (Project Summary), 1814 (Primary HTS)]; type: functional
[9] = Luminescence Cell-Based Dose Response HTS to Identify Activators of Luciferase Translation or Activity in H4 […] Cells. [Related pubchem assays: 1829 (Project Summary), 1814 (Primary HTS)]; type: functional
H4 = assay: Luminescence Cell-Based Dose Response HTS to Identify Activators of 5'UTR Stem-Loop Driven Prion Protein mRNA Translation in H4 Neuroglioblastoma Cells. [Related pubchem assays: 1829 (Project Summary), 1814 (Primary HTS)]; type: functional; conditions: Homo sapiens
Protein skinhead-1 = molecular target: T5, Protein skinhead-1 (Caenorhabditis elegans, UniProt P34707); type: functional
T5 sequence (P34707 whole entry): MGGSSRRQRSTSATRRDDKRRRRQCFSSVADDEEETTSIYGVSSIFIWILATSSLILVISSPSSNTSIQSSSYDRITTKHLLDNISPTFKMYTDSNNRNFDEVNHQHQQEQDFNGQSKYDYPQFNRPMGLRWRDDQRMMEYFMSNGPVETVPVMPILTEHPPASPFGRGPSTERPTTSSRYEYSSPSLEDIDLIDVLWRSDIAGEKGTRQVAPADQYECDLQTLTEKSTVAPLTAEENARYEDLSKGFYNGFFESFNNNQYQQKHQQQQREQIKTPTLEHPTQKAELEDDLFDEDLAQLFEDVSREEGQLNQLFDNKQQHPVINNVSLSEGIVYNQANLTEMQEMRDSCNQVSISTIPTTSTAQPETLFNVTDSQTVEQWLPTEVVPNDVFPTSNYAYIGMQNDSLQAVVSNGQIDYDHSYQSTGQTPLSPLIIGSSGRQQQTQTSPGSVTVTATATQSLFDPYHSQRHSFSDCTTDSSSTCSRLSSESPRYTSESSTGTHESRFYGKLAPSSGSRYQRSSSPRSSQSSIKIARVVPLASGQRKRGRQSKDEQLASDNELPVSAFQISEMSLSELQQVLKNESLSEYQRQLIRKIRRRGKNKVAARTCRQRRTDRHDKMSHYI

cells [10] = type: functional, cell-based
cells [11] = type: functional, cell-based; remark: listed apart in the source
[12] = HIV-1 AD8 envelope cell-cell fusion blockers – cherry-pick, dose response (AID 652062); type: functional, cell-based;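 further: luciferase signal from cell-cell fusion driven by HIV-1 clade B AD8 Env; potency is for inhibitors of fusion seen as a drop in luminescence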
[13] = viability of uninfected HEp-2 cells – cell-based, HTS, cytotoxicity control for RSV inhibitor project, dose response (AID 2410); type: functional; conditions: human respiratory syncytial virus

Sequence of Nonstructural protein 1 (Q194T2 whole entry): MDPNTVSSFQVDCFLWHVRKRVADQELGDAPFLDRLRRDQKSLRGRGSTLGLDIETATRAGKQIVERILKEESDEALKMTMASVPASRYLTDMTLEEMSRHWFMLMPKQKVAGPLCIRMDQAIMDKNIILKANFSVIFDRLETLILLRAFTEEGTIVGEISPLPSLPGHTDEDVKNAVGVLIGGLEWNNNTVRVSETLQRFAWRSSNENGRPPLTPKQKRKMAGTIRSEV
Sequence of FAD-linked sulfhydryl oxidase ALR (P55789 whole entry): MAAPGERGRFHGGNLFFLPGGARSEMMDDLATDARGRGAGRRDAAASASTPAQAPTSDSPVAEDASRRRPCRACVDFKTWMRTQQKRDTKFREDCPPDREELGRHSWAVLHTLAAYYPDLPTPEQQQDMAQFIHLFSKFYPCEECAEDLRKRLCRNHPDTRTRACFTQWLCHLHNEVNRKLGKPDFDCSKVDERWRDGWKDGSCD
Sequence of Genome polyprotein (P29990 2492-3391 limits assumed): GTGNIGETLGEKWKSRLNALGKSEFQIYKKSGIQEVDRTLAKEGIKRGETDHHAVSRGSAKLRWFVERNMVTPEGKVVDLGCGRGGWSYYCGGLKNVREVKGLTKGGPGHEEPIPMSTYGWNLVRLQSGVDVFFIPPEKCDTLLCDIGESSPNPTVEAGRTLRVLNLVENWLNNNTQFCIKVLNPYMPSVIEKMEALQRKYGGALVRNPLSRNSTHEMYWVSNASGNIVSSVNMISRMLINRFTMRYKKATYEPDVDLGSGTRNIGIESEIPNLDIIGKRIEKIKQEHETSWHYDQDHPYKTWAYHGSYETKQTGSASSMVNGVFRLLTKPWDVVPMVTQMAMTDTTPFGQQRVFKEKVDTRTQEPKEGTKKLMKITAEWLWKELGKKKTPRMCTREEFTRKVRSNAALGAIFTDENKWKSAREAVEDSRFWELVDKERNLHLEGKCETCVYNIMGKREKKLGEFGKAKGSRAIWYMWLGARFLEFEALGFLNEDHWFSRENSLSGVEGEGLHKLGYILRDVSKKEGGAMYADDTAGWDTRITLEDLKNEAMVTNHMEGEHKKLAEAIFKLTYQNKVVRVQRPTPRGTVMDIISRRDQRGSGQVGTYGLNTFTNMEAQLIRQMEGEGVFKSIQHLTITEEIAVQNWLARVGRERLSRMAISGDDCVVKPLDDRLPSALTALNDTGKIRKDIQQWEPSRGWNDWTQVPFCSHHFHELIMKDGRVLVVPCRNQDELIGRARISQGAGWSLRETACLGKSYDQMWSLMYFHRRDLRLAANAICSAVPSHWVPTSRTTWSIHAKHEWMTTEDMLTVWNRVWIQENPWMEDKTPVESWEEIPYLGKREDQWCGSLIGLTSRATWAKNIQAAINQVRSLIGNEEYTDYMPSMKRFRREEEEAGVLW
Sequence of Large T antigen (P03070 whole entry): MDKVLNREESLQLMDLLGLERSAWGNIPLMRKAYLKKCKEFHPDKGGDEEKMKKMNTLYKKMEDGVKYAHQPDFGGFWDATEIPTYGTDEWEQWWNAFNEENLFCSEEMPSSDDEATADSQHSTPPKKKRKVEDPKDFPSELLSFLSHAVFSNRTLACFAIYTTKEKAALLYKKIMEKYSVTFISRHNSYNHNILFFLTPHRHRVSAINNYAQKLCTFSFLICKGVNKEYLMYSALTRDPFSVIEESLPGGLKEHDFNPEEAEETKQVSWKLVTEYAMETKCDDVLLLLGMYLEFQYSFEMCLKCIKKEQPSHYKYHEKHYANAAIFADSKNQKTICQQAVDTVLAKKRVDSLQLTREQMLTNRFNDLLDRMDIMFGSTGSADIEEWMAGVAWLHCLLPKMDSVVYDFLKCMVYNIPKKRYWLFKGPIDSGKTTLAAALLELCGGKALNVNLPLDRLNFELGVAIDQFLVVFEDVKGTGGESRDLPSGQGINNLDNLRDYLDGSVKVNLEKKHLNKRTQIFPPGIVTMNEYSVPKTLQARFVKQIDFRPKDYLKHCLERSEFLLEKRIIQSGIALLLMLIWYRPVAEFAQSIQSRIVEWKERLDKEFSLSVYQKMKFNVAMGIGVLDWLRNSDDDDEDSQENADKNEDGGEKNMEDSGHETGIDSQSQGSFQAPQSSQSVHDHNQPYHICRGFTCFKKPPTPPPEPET
Sequence of Trypsin (P00761 whole entry): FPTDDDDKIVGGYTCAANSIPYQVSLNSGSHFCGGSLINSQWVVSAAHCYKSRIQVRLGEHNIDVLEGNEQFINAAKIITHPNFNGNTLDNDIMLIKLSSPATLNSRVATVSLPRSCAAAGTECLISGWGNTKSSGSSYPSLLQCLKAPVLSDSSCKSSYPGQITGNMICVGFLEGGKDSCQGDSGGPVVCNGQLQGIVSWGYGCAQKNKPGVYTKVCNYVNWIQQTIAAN
Sequence of Luciferin 4-monooxygenase (P08659 whole entry): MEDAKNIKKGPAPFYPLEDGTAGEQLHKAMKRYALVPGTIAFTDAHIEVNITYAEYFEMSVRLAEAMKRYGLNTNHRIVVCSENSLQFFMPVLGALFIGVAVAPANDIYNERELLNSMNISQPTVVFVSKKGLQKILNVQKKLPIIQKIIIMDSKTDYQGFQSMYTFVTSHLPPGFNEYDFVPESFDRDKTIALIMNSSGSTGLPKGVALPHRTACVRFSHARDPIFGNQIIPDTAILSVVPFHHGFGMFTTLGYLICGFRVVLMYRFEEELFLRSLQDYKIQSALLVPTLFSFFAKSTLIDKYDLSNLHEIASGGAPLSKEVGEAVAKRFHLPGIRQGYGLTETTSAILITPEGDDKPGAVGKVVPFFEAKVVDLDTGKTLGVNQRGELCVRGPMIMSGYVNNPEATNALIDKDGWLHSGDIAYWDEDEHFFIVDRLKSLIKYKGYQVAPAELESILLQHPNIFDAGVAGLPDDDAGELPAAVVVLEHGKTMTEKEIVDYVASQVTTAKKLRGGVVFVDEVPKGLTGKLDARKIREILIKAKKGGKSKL

In the case of `CCn1cnc2cc(NCc3ccc(N(C)C)cc3)ccc21`, the IC50 (Large T antigen) is reported as 15.8 µM (active) and the AC50 [1] is reported as 5.86 µM (active).
With `O=C(CCNC(=O)Cn1ccc2ccccc2c1=O)NCCN1CCN(c2ccccc2F)CC1` the IC50 [2] was > 20 µM (inactive).
With `COc1ccc(C(=O)NC(Cc2ccc(OC(=O)c3ccc(OC)cc3)cc2)C(=O)O)cc1` (stereo not drawn) the IC50 [3] was 9.12 µM (active).
With `CCN(CC)CCN1C(=O)C(O)=C(C(=O)c2ccc(C)cc2)C1c1cccnc1` (stereo not drawn) the IC50 (Large T antigen) was 18.9 µM (active).
For `Cc1ccccc1N1C(=O)NC(=O)/C(=C\c2cnn(-c3ccccc3)c2)C1=O`, the IC50 (Large T antigen) was 44.9 µM (active), the IC50 (Genome polyprotein) was > 100 µM (active) and the IC50 [4] was 118 µM (active).
For `COc1cccc(C2CC(c3cccs3)=NN2C(=O)CSc2nc3c(cnn3-c3ccc(F)cc3)c(=O)[nH]2)c1OC` (stereo not drawn), the EC50 (Streptokinase A) was > 50 µM (not active) and the AC50 (Trypsin) was 3.95 µM (active).
With `CC(C)(C)C1=CC(=Nc2ccccc2N)C=C(C(C)(C)C)C1=O` the IC50 (Nonstructural protein 1) was 10.9 µM (active).
For `Cn1c(-c2cccc([N+](=O)[O-])c2)cnc1NCc1cccc(F)c1`, the CC50 [5] was > 40 µM (active) and the AC50 [1] was 1.92 µM (active).
With `CCOC(=O)c1cnc(SCc2ccc(Cl)c(Cl)c2)nc1N1CC1` the CC50 (Vero) was > 25 µM (active).
With `COc1ccccc1N1CCN(C(=O)c2coc(=O)c(Br)c2)CC1` the AC50 (Trypsin) was 9.18 µM (active).
For `CCOC(=O)N1CCC(N2C(=O)c3ccccc3C2Nc2cc(OC)c(OC)c(OC)c2)CC1` (stereo not drawn), the EC50 [6] was > 112 µM (not active), the EC50 [7] was 94.3 µM (active) and the IC50 (H9c2) was > 79 µM (inactive).
For `CCN(CC)c1ccc(N=C2C(=O)Nc3ccccc32)cc1`, the IC50 (Nonstructural protein 1) was 14.3 µM (active), the AC50 [1] was 2.06 µM (active) and the AC50 (INS1) was 20.2 µM (active). The IC50 (Genome polyprotein) was > 100 µM (active).
With `COC(=O)c1ccccc1NC(=O)COC(=O)c1ccccc1N=Nc1ccc(N(C)C)cc1` the IC50 (Nonstructural protein 1) was 21.4 µM (active).
For `O=[N+]([O-])c1ccccc1NCCOc1ccccc1`, the EC50 [8] was 23.6 µM (active), the EC50 [9] was 24 µM (active) and the EC50 (H4) was 5.5 µM (active). For the same molecule, the IC50 (Nonstructural protein 1) was > 100 µM (active) and the IC50 (Protein skinhead-1) was 96.3 µM (inactive).
In the case of `CN1Cc2sc(N)c(C#N)c2CC1(C)C`, the IC50 [3] is reported as 22.9 µM (active).
In the case of `CCOc1nc(Nc2ccc(OC)cc2)nc(OCC)n1`, the EC50 (cells [10]) is reported as > 350 µM (not active) and the EC50 (cells [11]) is reported as > 350 µM (not active).
With `CCCNC(=O)C[C@H]1C[C@H]2c3cc(NC(=O)CN(C)C)ccc3O[C@H]2[C@@H](CO)O1` the AC50 [12] was 38.6 µM (active).
In the case of `CN(C)c1ccc(NC(=O)CN2CCC(O)(c3ccccc3)CC2)cc1`, the IC50 (Large T antigen) is reported as 7.29 µM (active).
With `O=C1ON=C(c2ccccc2)/C1=C/c1ccc(OS(=O)(=O)c2ccccc2)cc1` the IC50 (Large T antigen) was 67.3 µM (active) and the IC50 (Genome polyprotein) was 32.3 µM (active).
With `CC1CC(C)(C)CC2(C1)NC(=O)N(CC(=O)Nc1ccc3[nH]c(O)nc3c1)C2=O` (stereo not drawn) the IC50 [2] was > 20 µM (inactive).
In the case of `Cc1ccc(C2=NOC(=O)/C2=C\c2ccccc2)cc1`, the EC50 (cells [10]) is reported as > 350 µM (not active) and the EC50 (cells [11]) is reported as > 350 µM (not active).
In the case of `COC(=O)c1ccc(-n2cncn2)c([N+](=O)[O-])c1`, the EC50 (cells [10]) is reported as > 350 µM (not active) and the EC50 (cells [11]) is reported as > 350 µM (not active).
For `CCC[C@@H](CN1CCC[C@H]1CN1C(N)=NC[C@H]1CC(C)C)N1C[C@@H]([C@H](C)CC)N(CCCC2CCCC2)C1=N`, the IC50 [2] was > 20 µM (inactive).
For `O=C(NCCCn1ccnc1)c1cn(-c2ccccc2)nc1-c1ccc(F)cc1`, the IC50 [3] was 11.5 µM (active).
With `CCn1ncc(CN2CCCC(C(=O)Nc3cccc(-c4cc5ccccc5[nH]4)c3)C2)c1C` (stereo not drawn) the CC50 [13] was 16.1 µM (active) and the IC50 (Nonstructural protein 1) was > 100 µM (active).
For `Fc1ccccc1N=C(S)Nc1ccc(Br)cc1`, the EC50 (cells [10]) was > 350 µM (not active) and the EC50 (cells [11]) was 169 µM (active).
With `NC(=O)C1CCCN(Cc2c(C(=O)N3CCc4ccccc4C3)nc3ccc(Cl)cn23)C1` (stereo not drawn) the EC50 (cells [10]) was > 350 µM (not active) and the EC50 (cells [11]) was > 350 µM (not active).
